Source: ChEMBL document CHEMBL4311945, “Development of Dual Chitinase Inhibitors as Potential New Treatment for Respiratory System Diseases” (J Med Chem, 2019)

Tests used:
[1] = biological target: Voltage-gated inwardly rectifying potassium channel KCNH2 (Homo sapiens, UniProt Q12809); test: Displacement of Tracer Red from human ERG by fluorescence polarization assay
[2] = biological target: Acidic mammalian chitinase (Mus musculus, UniProt Q91XA9); test: Inhibition of full-length C-terminal his-tagged mouse acidic mammalian chitinase expressed in CHO-K1 cells assessed as reduction in chitinolytic activity using 4-methylumbelliferyl-beta-D-N,N'-diacetylchitobioside hydrate as substrate after 60 mins by fluorometric assay
[3] = biological target: Chitotriosidase-1 (Homo sapiens, UniProt Q13231); test: Inhibition of full-length C-terminal his-tagged human CHIT1 expressed in CHOK1 cells assessed as reduction in chitinolytic activity using 4-methylumbelliferyl-beta-D-N,N',N\"-triacetylchitotrioside as substrate after 60 mins by fluorometric assay; type: cell-based
[4] = biological target: Chitotriosidase-1 (Mus musculus, UniProt Q9D7Q1); test: Inhibition of full-length C-terminal his-tagged mouse CHIT1 expressed in CHO-K1 cells assessed as reduction in chitinolytic activity using 4-methylumbelliferyl-beta-D-N,N',N\"-triacetylchitotrioside as substrate after 60 mins by fluorometric assay; type: cell-based
[5] = biological target: dopamine transporter (DAT) (Homo sapiens, UniProt Q01959); test: Displacement of [3H]BTCP from recombinant human dopamine transporter at 10 uM after 120 mins by scintillation counting analysis relative to control; type: ADME; conditions: probe [3H]BTCP
[6] = Lipophilicity, logD of the compound at pH 7.4; type: physicochemical; conditions: buffer
[7] = biological target: Acidic mammalian chitinase (Homo sapiens, UniProt Q9BZP6); test: Inhibition of full-length C-terminal his-tagged human acidic mammalian chitinase expressed in CHOK1 cells assessed as reduction in chitinolytic activity using 4-methylumbelliferyl-beta-D-N,N-diacetylchitobioside hydrate as substrate after 60 mins by fluorometric assay
Sequence of Acidic mammalian chitinase (Homo sapiens, UniProt Q9BZP6) (Q9BZP6 whole entry): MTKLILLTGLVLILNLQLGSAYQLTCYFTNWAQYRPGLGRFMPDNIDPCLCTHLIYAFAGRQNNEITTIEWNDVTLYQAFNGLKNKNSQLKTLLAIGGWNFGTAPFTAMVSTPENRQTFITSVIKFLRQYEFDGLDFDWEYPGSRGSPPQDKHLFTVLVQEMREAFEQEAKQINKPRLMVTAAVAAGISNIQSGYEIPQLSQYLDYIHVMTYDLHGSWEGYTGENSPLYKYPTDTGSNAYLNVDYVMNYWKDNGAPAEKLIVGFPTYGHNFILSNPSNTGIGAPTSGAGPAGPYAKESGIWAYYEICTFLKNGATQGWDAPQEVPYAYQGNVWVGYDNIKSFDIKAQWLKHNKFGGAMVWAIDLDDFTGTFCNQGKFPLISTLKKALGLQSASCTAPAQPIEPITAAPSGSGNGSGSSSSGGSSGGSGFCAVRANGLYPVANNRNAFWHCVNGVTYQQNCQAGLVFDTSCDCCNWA

Sequence of Acidic mammalian chitinase (Mus musculus, UniProt Q91XA9) (Q91XA9 whole entry): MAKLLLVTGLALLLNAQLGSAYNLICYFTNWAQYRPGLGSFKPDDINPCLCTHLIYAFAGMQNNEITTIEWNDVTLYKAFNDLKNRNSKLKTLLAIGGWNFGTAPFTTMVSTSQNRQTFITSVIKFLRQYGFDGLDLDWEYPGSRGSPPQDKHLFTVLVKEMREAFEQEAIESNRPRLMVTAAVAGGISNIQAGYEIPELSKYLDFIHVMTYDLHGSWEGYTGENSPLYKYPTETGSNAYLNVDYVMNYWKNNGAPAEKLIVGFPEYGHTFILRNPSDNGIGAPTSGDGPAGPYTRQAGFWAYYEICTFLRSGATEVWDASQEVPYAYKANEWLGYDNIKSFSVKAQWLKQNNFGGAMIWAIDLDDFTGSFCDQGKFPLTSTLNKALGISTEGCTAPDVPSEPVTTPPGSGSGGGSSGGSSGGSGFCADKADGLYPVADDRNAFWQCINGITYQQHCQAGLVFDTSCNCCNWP
Sequence of Chitotriosidase-1 (Homo sapiens, UniProt Q13231) (Q13231 whole entry): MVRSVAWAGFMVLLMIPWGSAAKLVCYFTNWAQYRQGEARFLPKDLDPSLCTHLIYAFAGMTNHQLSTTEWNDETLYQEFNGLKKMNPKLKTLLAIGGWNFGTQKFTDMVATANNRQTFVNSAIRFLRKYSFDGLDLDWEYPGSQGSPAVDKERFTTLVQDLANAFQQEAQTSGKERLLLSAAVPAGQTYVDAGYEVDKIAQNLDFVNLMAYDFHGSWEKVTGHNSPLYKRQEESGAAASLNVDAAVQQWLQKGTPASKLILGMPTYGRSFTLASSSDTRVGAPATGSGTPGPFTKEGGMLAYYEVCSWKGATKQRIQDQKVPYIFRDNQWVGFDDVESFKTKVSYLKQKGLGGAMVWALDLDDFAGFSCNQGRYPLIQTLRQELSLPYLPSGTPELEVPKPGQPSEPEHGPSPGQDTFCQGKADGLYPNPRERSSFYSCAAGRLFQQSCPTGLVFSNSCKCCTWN
Sequence of dopamine transporter (DAT) (Q01959 whole entry): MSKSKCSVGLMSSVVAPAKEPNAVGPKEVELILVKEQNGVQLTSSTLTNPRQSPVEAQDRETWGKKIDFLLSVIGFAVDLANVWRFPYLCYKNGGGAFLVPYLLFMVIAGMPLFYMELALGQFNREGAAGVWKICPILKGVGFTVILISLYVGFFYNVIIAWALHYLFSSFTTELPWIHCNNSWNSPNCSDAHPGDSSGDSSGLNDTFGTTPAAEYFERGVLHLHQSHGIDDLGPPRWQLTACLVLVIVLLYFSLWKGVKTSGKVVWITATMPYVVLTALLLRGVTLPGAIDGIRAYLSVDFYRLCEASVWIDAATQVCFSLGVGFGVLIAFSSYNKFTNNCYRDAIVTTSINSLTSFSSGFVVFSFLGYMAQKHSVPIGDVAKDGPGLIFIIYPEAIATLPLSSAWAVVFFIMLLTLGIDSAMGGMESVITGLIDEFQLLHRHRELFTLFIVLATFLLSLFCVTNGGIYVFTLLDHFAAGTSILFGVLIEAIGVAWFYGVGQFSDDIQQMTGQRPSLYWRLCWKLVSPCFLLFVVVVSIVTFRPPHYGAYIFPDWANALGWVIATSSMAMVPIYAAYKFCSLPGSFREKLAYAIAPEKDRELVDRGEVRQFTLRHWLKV
Sequence of Chitotriosidase-1 (Mus musculus, UniProt Q9D7Q1) (Q9D7Q1 whole entry): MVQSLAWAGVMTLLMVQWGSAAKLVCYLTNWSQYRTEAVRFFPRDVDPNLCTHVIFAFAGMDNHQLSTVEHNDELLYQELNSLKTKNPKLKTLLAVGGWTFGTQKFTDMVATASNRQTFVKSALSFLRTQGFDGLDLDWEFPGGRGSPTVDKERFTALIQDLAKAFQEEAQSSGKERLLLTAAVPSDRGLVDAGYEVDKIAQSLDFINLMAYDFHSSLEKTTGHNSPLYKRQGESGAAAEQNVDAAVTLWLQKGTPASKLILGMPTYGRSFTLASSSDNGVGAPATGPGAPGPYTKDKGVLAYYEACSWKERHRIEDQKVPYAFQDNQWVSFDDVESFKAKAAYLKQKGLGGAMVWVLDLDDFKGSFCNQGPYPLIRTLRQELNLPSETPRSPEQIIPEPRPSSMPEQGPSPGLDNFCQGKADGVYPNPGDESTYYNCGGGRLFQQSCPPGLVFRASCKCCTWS
Sequence of Voltage-gated inwardly rectifying potassium channel KCNH2 (Q12809 whole entry): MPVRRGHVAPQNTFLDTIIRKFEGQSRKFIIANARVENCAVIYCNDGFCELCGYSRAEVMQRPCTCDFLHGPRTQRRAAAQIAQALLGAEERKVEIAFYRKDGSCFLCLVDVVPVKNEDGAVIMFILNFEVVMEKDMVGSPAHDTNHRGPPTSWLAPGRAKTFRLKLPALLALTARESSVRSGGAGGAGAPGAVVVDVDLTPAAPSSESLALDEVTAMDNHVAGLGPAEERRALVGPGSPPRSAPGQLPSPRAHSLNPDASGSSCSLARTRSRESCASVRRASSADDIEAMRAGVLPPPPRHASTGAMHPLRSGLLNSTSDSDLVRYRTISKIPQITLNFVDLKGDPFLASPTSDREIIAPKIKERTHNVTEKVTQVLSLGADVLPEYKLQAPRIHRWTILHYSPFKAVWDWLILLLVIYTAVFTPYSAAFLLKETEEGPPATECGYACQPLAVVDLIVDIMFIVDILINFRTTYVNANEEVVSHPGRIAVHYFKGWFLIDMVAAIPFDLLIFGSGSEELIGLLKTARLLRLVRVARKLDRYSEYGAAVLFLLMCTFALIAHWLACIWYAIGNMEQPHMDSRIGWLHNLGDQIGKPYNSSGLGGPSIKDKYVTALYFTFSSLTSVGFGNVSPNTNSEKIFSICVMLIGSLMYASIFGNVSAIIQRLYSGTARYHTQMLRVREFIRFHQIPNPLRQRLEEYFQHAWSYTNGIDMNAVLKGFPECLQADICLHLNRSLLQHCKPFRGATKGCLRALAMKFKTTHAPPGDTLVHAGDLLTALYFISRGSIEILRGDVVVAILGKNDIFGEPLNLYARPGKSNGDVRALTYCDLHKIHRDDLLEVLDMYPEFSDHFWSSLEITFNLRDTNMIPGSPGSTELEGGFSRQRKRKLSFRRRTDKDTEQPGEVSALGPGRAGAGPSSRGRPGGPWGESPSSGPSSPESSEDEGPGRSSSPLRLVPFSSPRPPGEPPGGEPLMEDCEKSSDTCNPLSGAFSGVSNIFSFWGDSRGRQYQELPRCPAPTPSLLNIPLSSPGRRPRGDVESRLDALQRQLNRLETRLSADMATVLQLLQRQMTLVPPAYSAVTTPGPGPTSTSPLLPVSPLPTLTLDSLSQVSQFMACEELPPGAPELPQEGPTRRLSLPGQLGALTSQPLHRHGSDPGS

IC50 [2] [nM]	IC50 [3] [nM]	IC50 [4] [µM]	inhibition at 2 h, 10 µM [5] [%]	logD [6]	IC50 [7] [nM]	Compound	IC50 [1] [µM]
35	495	8.1	–	–	–	CC(=O)NCCN(CCc1ccc(Cl)cc1)C1CCN(c2nc(N)n[nH]2)CC1	3.3
53	44	1.15	33	–	–	CO[C@@H](C)CN(CCc1ccc(Cl)cc1)C1CCN(c2nc(N)n[nH]2)CC1	17.6
81	41	0.087	–	1.41	23	Nc1nnc(N2CCC(N3CCCC[C@@H]3Cc3ccc(Cl)cc3)CC2)[nH]1	8.3
2600	19500	37	–	–	–	Nc1n[nH]c(N2CCC(N3CCC(c4ccc(Cl)cc4)C3)CC2)n1 (centres undefined)	–
73	395	4.7	–	–	–	CC(C)(O)CN(CCc1ccc(Cl)cc1)C1CCN(c2nc(N)n[nH]2)CC1	19
335	1850	19	–	–	–	Nc1n[nH]c(N2CCC(N3CCCC(c4ccc(Cl)cc4)C3)CC2)n1 (centres undefined)	–
170	–	0.52	–	0.81	–	Nc1nnc(N2CCC(N3C[C@@H](O)C[C@@H]3Cc3ccc(Cl)cc3)CC2)[nH]1	13.2
27	180	5.5	–	–	–	Nc1n[nH]c(N2CCC(N(CCc3ccc(Cl)cc3)C3COC3)CC2)n1	4.4
56	21	0.75	50	–	–	Nc1n[nH]c(N2CCC(N(CCc3ccc(Cl)cc3)CC3CCCCO3)CC2)n1 (centres undefined)	11
–	145	2.35	–	–	–	C[C@H](O)CN(CCc1ccc(Cl)cc1)C1CCN(c2nc(N)n[nH]2)CC1	14
65	47	0.345	59	1.6	–	CO[C@H]1C[C@H](Cc2ccc(Cl)cc2)N(C2CCN(c3nnc(N)[nH]3)CC2)C1	–
485	580	5.55	–	1.55	–	CO[C@H]1CN(C2CCN(c3nnc(N)[nH]3)CC2)[C@H]1Cc1ccc(Cl)cc1	0.34
–	505	3.65	–	–	–	COC(C)(C)CN(CCc1ccc(Cl)cc1)C1CCN(c2nc(N)n[nH]2)CC1	3.5
